These results are taken from patent publication US20250161245A1, “A MIXTURE OF UREA, BIURET AND N-CONTAINING BY-PRODUCTS CREATED DURING BIURET PRODUCTION AS A DIETARY NON-PROTEIN NITROGEN-SOURCE FOR RUMINANTS AND USES THEREOF” (Yara International ASA, priority 2022, published 2025).

For this assay, the system named is rumen microbes. In words: microbial protein synthesis, 15N batch culture (Example 4). Format: cell-based, Angus crossbred steers. As to conditions: 24 hours of incubation. As for the experimental part:
The in vitro incubations were conducted on three separate days (replicates). A representative sample of digesta was collected from different places in the rumen of ruminally cannulated steers and strained through 4 layers of cheesecloth, placed in pre-warmed thermos containers, and transported to the laboratory within 30 minutes after the collection. In the laboratory, the ruminal fluid from the two steers was maintained under constant CO2-flux and was combined in equal proportions. This combined ruminal fluid was mixed with McDougall's buffer (McDougall, 1948) with and without 0.077 g/liter of 10 wt. % ammonium sulfate enriched with ^15N in relation 1:4, and it was used as an inoculum. Two bottles of 500 ml fitted with a side arm and a rubber septum were incubated per treatment. […] At the end of the 24 hours incubation, the final pH was recorded, the bottles were placed on ice to prevent further microbial fermentation and two 10-ml samples were collected and acidified by adding 20 μl of a 20 vol/vol % of H2SO4-solution and were frozen at minus 20° C. until further analysis. […]
The total nitrogen (N) and the isotopic supplement were measured in the whole content and the bacterial pellet by an isotopic ratio mass spectrometry using a Vario Micro cube from Elementar Analyzer System GmbH. […]

As to `NC(N)=O` [Urea, urea], the “Bacteria N” value came out at 67.34 mg and the EMPS is given as 34.46 g of bacteria N/kg of OM truly digested.
